Where “and” joins values, the source holds several entries; their conditions need not be identical. Equal entries are not always repeated. Starred links: 1 amine or outer side, 2 acyl side, 3 side chain; linkers in the order of their positions; H or OH if unused. Positions of bridges follow the written chain, without caps; N, C: chain ends. Non-standard residues stand in square brackets, D forms with d. Residues, ends and D or L forms follow the SMILES beside them. TATA = O=C(CC[*:1])N1CN(C(=O)CC[*:2])CN(C(=O)CC[*:3])C1; Phe(4-F) = N[C@@H](Cc1ccc(F)cc1)C(=O)O; β3hR = N=C(N)NCCC[C@H](N)CC(=O)O
What was measured:
Mouse α-FXIIa = target: T1, Mouse α-FXIIa (Mus musculus, UniProt Q80YC5); assay: FXIIa protease inhibition assay with fluorogenic substrate Boc-Gln-Gly-Arg-AMC; format: biochemical
T1 construct: Mouse α-FXIIa; purchased Molecular Innovations MFXIIA
T1 sequence (Q80YC5 355-597 limits assumed): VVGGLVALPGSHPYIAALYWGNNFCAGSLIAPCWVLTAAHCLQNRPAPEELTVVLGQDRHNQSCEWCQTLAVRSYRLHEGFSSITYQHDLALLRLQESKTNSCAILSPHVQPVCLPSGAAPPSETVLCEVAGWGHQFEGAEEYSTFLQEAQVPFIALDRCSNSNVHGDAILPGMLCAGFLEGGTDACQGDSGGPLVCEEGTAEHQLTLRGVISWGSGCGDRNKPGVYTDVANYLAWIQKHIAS
T1 sequence (Q80YC5 20-354 limits assumed): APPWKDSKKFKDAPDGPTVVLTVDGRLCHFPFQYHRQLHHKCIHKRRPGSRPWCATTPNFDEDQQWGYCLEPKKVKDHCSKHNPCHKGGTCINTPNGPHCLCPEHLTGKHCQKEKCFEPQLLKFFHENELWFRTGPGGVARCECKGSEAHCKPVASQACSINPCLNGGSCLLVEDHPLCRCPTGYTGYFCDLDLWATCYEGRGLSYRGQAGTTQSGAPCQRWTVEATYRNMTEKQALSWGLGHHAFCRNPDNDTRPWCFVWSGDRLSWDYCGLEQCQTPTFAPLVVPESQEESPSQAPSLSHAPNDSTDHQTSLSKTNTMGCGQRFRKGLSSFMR
Summary of the method: (§1)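 Mouse α-FXIIa or human β-FXIIa (0.4 nM final) was preincubated with bicyclic peptide for 10 min at 25 °C in Tris-Cl buffer with 1% DMSO. Residual activity was then read over 30 min with 50 µM Boc-Gln-Gly-Arg-AMC (ex 368/em 467 nm). IC50 came from sigmoidal fits, and Ki was derived by Cheng-Prusoff.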

human β-FXIIa = target: T2, human β-FXIIa (Homo sapiens, UniProt P00748); assay: as above; format: biochemical
T2 construct: human β-FXIIa (Molecular Innovations cat #); purchased Molecular Innovations HFXIIAB; host or cells: human blood
T2 sequence (P00748 373-615 limits assumed, other chains not shown): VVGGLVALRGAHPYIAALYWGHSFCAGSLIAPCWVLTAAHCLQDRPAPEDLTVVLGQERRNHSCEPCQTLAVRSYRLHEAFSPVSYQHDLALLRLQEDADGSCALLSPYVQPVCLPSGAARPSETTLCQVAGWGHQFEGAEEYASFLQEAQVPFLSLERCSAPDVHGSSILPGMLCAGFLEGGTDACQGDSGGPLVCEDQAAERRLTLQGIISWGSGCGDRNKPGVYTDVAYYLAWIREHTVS
Summary of the method: as §1

[1] = Observation of toxicity or adverse effects in the animal studies; format: in vivo, mice, rabbits, pigs; conditions: all studies with the three species
Recombinant mouse FXII = target: T3, Recombinant mouse FXII (Mus musculus, UniProt Q80YC5); assay: Inhibition of recombinant FXIIa (rFXIIa); format: biochemical; conditions: read-out: Residual activity (%), Recombinant mouse FXII, individual plates
T3 sequence (Q80YC5 355-597 limits assumed): T1 sequence (Q80YC5 355-597 limits assumed)
T3 sequence (Q80YC5 20-354 limits assumed): T1 sequence (Q80YC5 20-354 limits assumed)

With `CC(C)C[C@@H]1NC(=O)[C@H](CCC(N)=O)NC(=O)[C@H](Cc2c[nH]cn2)NC(=O)[C@@H]2CSCCC(=O)N3CN(CN(C3)C(=O)CCSC[C@H](NC(=O)[C@@H](CO)NC(=O)[C@H](N)CCCNC(=N)N)C(=O)N[C@@H](Cc3ccc(F)cc3)C(=O)N[C@@H](CCCNC(=N)N)C(=O)N[C@@H](CC(C)C)C(=O)N3CCC[C@H]3C(=O)N2)C(=O)CCSC[C@@H](C(N)=O)NC(=O)C[C@H](CCCNC(=N)N)NC1=O` [FXII900] (H-[dR][dS]C[Phe(4-F)]RLPCHQL[β3hR]C-NH2; linker 3-8-13 via TATA) the Ki (Mouse α-FXIIa) was 0.45 ± 0.11 nM, the Ki (human β-FXIIa) was 0.37 ± 0.04 nM and the “Residual activity of human FXIIa” value (human β-FXIIa; inhibitor 0.030518 nM, 30.52 pM) was 89.8015%. The “Residual activity of human FXIIa” value (human β-FXIIa; inhibitor 0.03125 nM, 31.25 pM) was 91.2184% and 98.3306%, the “Residual activity of human FXIIa” value (human β-FXIIa; inhibitor 0.061035 nM, 61.04 pM) was 87.3761% and the “Residual activity of human FXIIa” value (human β-FXIIa; inhibitor 0.0625 nM, 62.5 pM) was 92.1225% and 95.5725%. The “Residual activity of human FXIIa” value (human β-FXIIa; inhibitor 0.12207 nM, 0.00012207 µM) was 78.5763%, the “Residual activity of human FXIIa” value (human β-FXIIa; inhibitor 0.125 nM, 0.000125 µM) was 82.8895% and 92.0812% and the “Residual activity of human FXIIa” value (human β-FXIIa; inhibitor 0.244141 nM, 0.000244141 µM) was 65.9451%. The “Residual activity of human FXIIa” value (human β-FXIIa; inhibitor 0.488281 nM, 0.000488281 µM) was 44.4485%, the “Residual activity of human FXIIa” value (human β-FXIIa; inhibitor 0.5 nM, 0.0005 µM) was 54.1096% and 47.3759% and the “Residual activity of human FXIIa” value (human β-FXIIa; inhibitor 1 nM, 0.001 µM) was 29.6346% and 29.527%. For the same compound, the “Residual activity of human FXIIa” value (human β-FXIIa; inhibitor 1.95312 nM, 0.00195312 µM) was 9.983% and 4.833%, the “Residual activity of human FXIIa” value (human β-FXIIa; inhibitor 2 nM, 0.002 µM) was 13.0658% and 11.4779% and the “Residual activity of human FXIIa” value (human β-FXIIa; inhibitor 3.90625 nM, 0.00390625 µM) was 2.681% and 0.3074%. For the same compound, the “Residual activity of human FXIIa” value (human β-FXIIa; inhibitor 4 nM, 0.004 µM) was 2.623% and 4.603% and 9.7%, the “Residual activity of human FXIIa” value (human β-FXIIa; inhibitor 7.8125 nM, 0.0078125 µM) was 1.017% and -0.1178% and the “Residual activity of human FXIIa” value (human β-FXIIa; inhibitor 8 nM, 0.008 µM) was 0.8848% and 2.033% and 3.493%. The “Residual activity of human FXIIa” value (human β-FXIIa; inhibitor 15.625 nM, 0.015625 µM) was 1.594% and 0.3357%, the “Residual activity of human FXIIa” value (human β-FXIIa; inhibitor 0.976562 / 0.976563 nM, 0.000976563 µM) was 20.4026% and the remaining activity at 30.52 pM (human β-FXIIa; read-out: Residual activity of human FXIIa, inhibitor 0.030518 nM) was 92.8%. It also gave a remaining activity at 31.25 pM (human β-FXIIa; read-out: Residual activity of human FXIIa, inhibitor 0.03125 nM) of 90.7%, a remaining activity at 61.04 pM (human β-FXIIa; read-out: Residual activity of human FXIIa, inhibitor 0.061035 nM) of 102% and a remaining activity at 62.5 pM (human β-FXIIa; read-out: Residual activity of human FXIIa, inhibitor 0.0625 nM) of 89.8%. For the same compound, the remaining activity at 0.00012207 µM (human β-FXIIa; read-out: Residual activity of human FXIIa, inhibitor 0.12207 nM) was 77.3%, the remaining activity at 0.000125 µM (human β-FXIIa; read-out: Residual activity of human FXIIa, inhibitor 0.125 nM) was 80.4% and the remaining activity at 0.000244141 µM (human β-FXIIa; read-out: Residual activity of human FXIIa, inhibitor 0.244141 nM) was 66.6%. For the same compound, the remaining activity at 0.000488281 µM (human β-FXIIa; read-out: Residual activity of human FXIIa, inhibitor 0.488281 nM) was 51.8%, the remaining activity at 0.0005 µM (human β-FXIIa; read-out: Residual activity of human FXIIa, inhibitor 0.5 nM) was 46.7% and the remaining activity at 0.001 µM (human β-FXIIa; read-out: Residual activity of human FXIIa, inhibitor 1 nM) was 24.6%. It also gave a remaining activity at 0.002 µM (human β-FXIIa; read-out: Residual activity of human FXIIa, inhibitor 2 nM) of 8.92%, a remaining activity at 0.03125 µM (human β-FXIIa; read-out: Residual activity of human FXIIa, inhibitor 31.25 nM) of 0% and a remaining activity at 0.000976563 µM (human β-FXIIa; read-out: Residual activity of human FXIIa, inhibitor 0.976562 / 0.976563 nM) of 29.9%. The “signs of toxicity or other adverse effects” value [1] was “did not observe any signs of toxicity or other adverse effects”, the remaining activity at 30.52 pM (Recombinant mouse FXII; peptide 0.030518 nM) was 94.5% and the remaining activity at 61.04 pM (Recombinant mouse FXII; peptide 0.061035 nM) was 95%. The remaining activity at 0.00012207 µM (Recombinant mouse FXII; peptide 0.12207 nM) was 85.5%, the remaining activity at 0.000244141 µM (Recombinant mouse FXII; peptide 0.244141 nM) was 77.6% and the remaining activity at 0.000488281 µM (Recombinant mouse FXII; peptide 0.488281 nM) was 61.6%. It also gave a remaining activity at 0.000976563 µM (Recombinant mouse FXII; peptide 0.976563 nM) of 37.8%, a remaining activity at 0.00195312 µM (Recombinant mouse FXII; peptide 1.95312 nM) of 15.3% and a remaining activity at 0.0078125 µM (Recombinant mouse FXII; peptide 7.8125 nM) of 0.768%. It also gave a remaining activity at 0.015625 µM (Recombinant mouse FXII; peptide 15.625 nM) of 0% and a remaining activity at 0.03125 µM (Recombinant mouse FXII; peptide 31.25 nM) of 0%.

From PMC7403315, “Cyclic peptide FXII inhibitor provides safe anticoagulation in a thrombosis model and in artificial lungs” (Nature Communications, 2020)
